Patent US10577322B2, “5-methoxytryptophan and its derivatives and uses thereof” (National Health Research Institutes, priority 2015, dated 2020)

Columns and labels:
COX-2 [1] = experiment: PMA-induced COX-2 expression in A549 cells (immunoblot); format: cell-based; conditions: for PMA-induced COX-2 protein expression: 30 min pretreatment, PMA 8 h
Experimental: (§1) Cellular protein were resolved by 5% to 20% SDS-PAGE and transferred to nitrocellulose membranes and blotted with specific antibodies as previously described (Lee, G. L., et al.).
After pretreating A549 cells with different concentrations of 5-MTP, 5-MTPE and NACT-5-MTP for 30 min, cells were stimulated with PMA for 8 h. Cell lysates were immunoblotted with antibodies for COX-2 or β-actin.

COX-2 [2] = experiment: LPS-induced COX-2 protein expression in RAW264.7 cells (immunoblot); format: cell-based, mouse; conditions: LPS 8 h
Experimental: (§2) Mouse RAW264.7 macrophages were from the American Type Culture Collection and cultured in DMEM containing 10% FBS. […] The duration of LPS (100 ng/ml) treatment varied depending on the experiment.
as §1
(§3) After pretreating mouse macrophage RAW264.7 cells with different concentrations of 5-MTP for 30 min, cells were stimulated with LPS for 8 h. Cell lysates were immunoblotted with antibodies for COX-2 or β-actin. In addition, RAW264.7 cells were transfected with COX-2 promoter-luciferase plasmid. After 24 h transfection, the cells were incubated with LPS for 8 h. Luciferase activity was measured.

IL-6 = experiment: LPS-induced IL-6 level in RAW264.7 culture supernatants (ELISA); format: cell-based, mouse; conditions: RAW264.7 cells; for LPS-induced IL-6 protein expression: LPS 8 h
Experimental: as §2
Moreover, RAW264.7 cells and IL-6 promoter-luciferase plasmid transfected RAW264.7 cells were pretreated with different concentrations of 5-MTP for 30 min, followed by LPS stimulation for 8 h. IL-6 promoter activity was measured by luciferase assay. IL-6 level in culture supernatants was measured by ELISA.
Furthermore, RAW264.7 cells were treated with different concentrations of 5-MTP or 5-MTPE for 24 h. Cell viability was determined by MTT assay. In another experiment, after pretreating RAW264.7 cells with different concentrations of 5-MTP or 5-MTPE for 30 min, cells were stimulated with LPS for 24 h. IL-6 level in culture supernatants was measured by ELISA.
(§4) Herein, after pretreating RAW264.7 cells with different concentrations of 5-MTP, 5-MTPE, COX-2 inhibitors (NSC398 or SC560) and NF-κB inhibitor JSH-23 for 30 min, cells were stimulated with LPS. In addition, RAW264.7 cells were also transfected with COX-2 promoter-luciferase plasmid. After 24 h transfection, the cells were incubated with LPS for 8 h. Luciferase activity as measured.

COX-2 promoter = experiment: COX-2 promoter-luciferase assay in RAW264.7 cells; format: cell-based, mouse; conditions: LPS 8 h
Experimental: RAW264.7 macrophages were cotransfected with COX-2 promoter-luciferase, IL-6 promoter-luciferase constructs as previously described (Lee, G. L., et al.) or p5xNF-κB-luciferase (Stratagene) and pcDNA3.1-β-galactosidase plasmids using FuGENE 6 (Roche). After overnight transfection, the cells were incubated with or without LPS in the presence or absence of 5-MTP for 8 h. After treatment, cells were lysed, and luciferase activity was measured using an assay kit (Promega). β-galactosidase activity was used to normalize the data.
as §3, with “measured. The experiments were repeated 3 times with similar results. The results shown in FIGS. 3A-3B confirmed that 5-MTP blocked LPS-induced COX-2 protein expression and promoter activity in a concentration-dependent manner in RAW264.7 cells.” for “measured.”
as §4

A549 lung cancer cells = experiment: Transwell cell migration assay, A549; format: cell-based; conditions: 30 min pretreatment, PMA 4 h or 24 h
Experimental: (§5) Briefly, cells (10^4/well) were seeded on the upper chamber (6.5-mm insert, 8-μm polycarbonate membrane; Corning Inc.), which was placed in each well of a 24-well plate. The lower chamber was filled with 700 μL DMEM supplemented with 10% FBS. For assessment of in vitro invasion, cells were seeded onto the upper chamber insert coated with Matrigel (BD Biosciences) under the same conditions as the transwell migration assays. At the indicated time, nonmigrated cells that remained at the top surface of the insert were removed with a cotton swab. Cells that migrated to the lower membrane surface and cells that invaded through the matrigel gel to the underside of the membrane were fixed, stained with 0.1% crystal violet for 20 min, and counted under light microscopy. All of the assays were done in triplicate with excellent reproducibility.
(§6) Lung cancer A549 and breast cancers BT474 and T47D cells were pretreated with different concentrations of 5-MTP or 5-MTPE for 30 min, then stimulated with PMA for 4 h or 24 h. Cell migration was measured by the transwell migration assay.

[3] = system: BT474 breast cancer cells; experiment: Transwell cell migration assay, BT474; format: cell-based; conditions: 30 min pretreatment, PMA 4 h or 24 h
Experimental: as §5, §6

T47D breast cancer cells = experiment: Transwell cell migration assay, T47D; format: cell-based; conditions: 30 min pretreatment, PMA 4 h or 24 h
Experimental: as §5, §6

COc1ccc2[nH]cc(CCN)c2c1 [5-methoxytryptamine, reference compound]
PMA-induced COX-2 protein expression (COX-2 [1]): neither serotonin nor 5-methoxytryptamine or tryptophan exerted an effect | LPS-induced COX-2 protein expression (COX-2 [2]): neither serotonin nor 5-methoxytryptamine or tryptophan exerted an effect | LPS-induced IL-6 protein expression (IL-6): neither serotonin nor 5-methoxytryptamine or tryptophan exerted an effect

Cc1ccc(NCCCc2ccccc2)c(N)c1 [JSH-23, reference compound]
LPS-induced COX-2 promoter activity (luciferase) (COX-2 promoter): dose-dependently blocked | LPS-induced IL-6 level in culture supernatants (IL-6; 30 min pretreatment, LPS 24 h): dose-dependently blocked

NCCc1c[nH]c2ccc(O)cc12 [Serotonin, reference compound]
PMA-induced COX-2 protein expression (COX-2 [1]): neither serotonin nor 5-methoxytryptamine or tryptophan exerted an effect | LPS-induced COX-2 protein expression (COX-2 [2]): neither serotonin nor 5-methoxytryptamine or tryptophan exerted an effect | LPS-induced IL-6 protein expression (IL-6): neither serotonin nor 5-methoxytryptamine or tryptophan exerted an effect

N[C@@H](Cc1c[nH]c2ccccc12)C(=O)O [Tryptophan]
PMA-induced COX-2 protein expression (COX-2 [1]): neither serotonin nor 5-methoxytryptamine or tryptophan exerted an effect | LPS-induced COX-2 protein expression (COX-2 [2]): neither serotonin nor 5-methoxytryptamine or tryptophan exerted an effect | LPS-induced IL-6 protein expression (IL-6): neither serotonin nor 5-methoxytryptamine or tryptophan exerted an effect

N-acetyl-5-MTP [NACT-5MTP]
PMA-induced COX-2 protein expression (COX-2 [1]): dose-dependently blocked | COX-2 suppressive activity compared with 5-MTP (COX-2 [1]; PMA): potent than that of 5-MTP | PMA-induced A549 cell migration (A549 lung cancer cells): abrogated | PMA-induced BT474 cell migration [3]: abrogated | PMA-induced T47D cell migration (T47D breast cancer cells): abrogated
